Measured values taken from article PMC12828148, “Engineered cyclic peptide targeting ITGA5 disrupts tumor–stroma interaction to overcome desmoplasia and resistance in pancreatic ductal adenocarcinoma” (Acta Pharmaceutica Sinica. B, 2025).
Peptide text beside a SMILES is read from it.

Legend:
[1] = Peptide stability in human plasma; assay type: in vitro ADME; details: 20 µmol/L peptide, 50% human plasma, 37 °C, 1, 2 and 24 h, TCA precipitation, RP-HPLC UV 280 nm
Protocol: To evaluate the stability, 20 µmol/L peptide was incubated in 50% human plasma at biological temperature 37 °C for 1, 2, and 24 h. After incubation, plasma was precipitated by adding equal volume of 4% trichloroacetic acid (TCA) and rested on ice for 10 min. As control (or 0h), precipitation was performed immediately after mixing the peptide and plasma. Supernatant was collected after centrifugation at 13,300 × g and assessed using reversed phase high performance liquid chromatography (HPLC) with 5%, 95%, and 99.9% acetonitrile in de-gassed water with 0.1% trifluoroacetic acid as eluents. The remaining peptide was analyzed at a wavelength 280 nm.
Quantitative real-time PCR […]
(§1) The next day, the medium […]
(§2) was changed with 0% FBS Stellate Cell medium to starve hPSCs for 24 h. Subsequently, hPSCs were incubated with 5 ng/mL TGF-β1 and peptide for 48 h to examine the effect on protein expression of different markers such as α-SMA and collagen-1. Cells were lysed using 1× blue loading buffer containing 1× DTT reducing agent (Cell Signaling Technology) and homogenized using ultrasonication. Protein lysates were separated on a 4%–20% Tris-Glycine gel (Thermo Scientific) and then transferred onto a PVDF membrane (Thermo Scientific). […]

[2] = tested on: PANC-1 + PSC and MIA PaCa-2 + PSC co-injection xenograft tumors
Protocol: Six-week-old male CB17 SCID mice (Janvier Labs, Le Genest-Saint-Isle, France) were subcutaneously injected with a 2:1 mixture of 4 × 10^6 human PSCs and 2 × 10^6 PANC-1 or MIA PaCa-2 cells. Tumor growth was assessed twice a week. Tumor-bearing mice (±100 mm^3) were treated with phosphate buffered saline (PBS), cyAV3.3, gemcitabine, or combination of gemcitabine and cyAV3.3 intraperitoneally (i.p). Animals were euthanized, tumors and other organs were harvested and embedded in Cryomatrix (Thermo Scientific) before being snap frozen in cold 2-methyl butane (Thermo Scientific) and stored at −80 °C until analyses. […]
Immunohistochemical staining of mouse tumors
Tumors were cut into 7 μm thick sections and mounted on glass slides using Cryotome FSE (Thermo Scientific), dried, and fixed in acetone for 15 min. Tumor sections were rehydrated in PBS for 10 min then incubated with primary antibody diluted in PBS for 1 hour at RT. Antibodies […]
Next, slides were washed 3 times with PBS before incubation with secondary fluorescence-labeled antibody diluted in PBS. After 30 min of incubation, slides were washed with PBS and shielded with a DAPI -containing mounting medium. Images were made using a Hamamatsu NanoZoomer Digital slide scanner 2.0HT (Hamamatsu Photonics, New Jersey, […]

TGF-β treated PSCs = experiment: Cell adhesion competition study (PSC attachment to FN-coated plate, crystal violet); assay type: cell-based, human; details: 50 μmol/L peptide, 30 min pre-incubation 37 °C, 1 h attachment, crystal violet absorbance 600 nm, n = 3
Protocol: To analyze the interaction of PSC and FN, a 96 suspension well plate was coated with 100 μL FN (Advanced Biomatrix, Carlsbad, CA, USA) at 1 μg/mL by overnight incubation at 4 °C. Next, the plate was washed with DPBS (Lonza) and blocked with 5% bovine serum albumin (BSA) in DPBS for at least 1 h at RT. In the meantime, a cell suspension of 200,000 cells/mL of TGF-β treated PSCs in DPBS with 2 mmol/L Ca^2+ and 2 mmol/L Mg^2+ was treated with 50 μmol/L AV3.3 or cyAV3.3 and incubated for 30 min at 37 °C. After washing the plate with DPBS, 100 μL cell suspension was added to each well and then set to rest for 1 h at RT. The plate was then washed with DPBS to remove unattached cells. […] Next, cells were stained with 0.1% (w/v) crystal violet (Sigma) in 25% methanol at RT. After 20 min, cells were washed with water and lysed with 0.5% (w/v) SDS. The degree of cell attachment was measured by the absorbance of the crystal violet at 600 nm using Tecan Infinite M200 plate reader (Tecan, Mannendorf, Switzerland). In other plate, cells were washed with DPBS after fixation and then stained with DAPI. Images were developed using EVOS fluorescence microscope (Thermo Scientific).

[3] = tested on: PANC-1 homospheroids / PANC-1 + PSC heterospheroids; experiment: Gene expression in 3D PANC-1 homospheroids and PANC-1 + PSC heterospheroids (qPCR); assay type: cell-based, human; details: treated Days 3 and 6, qPCR Day 7, n = 3
hPSCs activated by TGF-β = experiment: Gene expression in TGF-β-activated hPSCs (qPCR, RT2 profiler PCR array); assay type: cell-based, human
Protocol: Quantitative real-time PCR
To examine the effect of peptides on the gene expression of hPSC activation markers, cells were seeded into a 12 well plate at a seeding density of 50,000 cells/well. After overnight incubation, cells were starved for 24 h, then treated with human recombinant 5 ng/mL TGF-β (Peprotech, […]
After 24 h of the incubation, cells were lysed and total RNA was isolated using GenElute™ Mammalian Total RNA Miniprep Kit (Sigma–Aldrich) and the RNA concentration was measured using a NanoDrop® ND-1000 Spectrophotometer (Thermo Scientific, Waltham, USA). cDNA was synthesized with iScript™ cDNA Synthesis Kit (BioRad, Veenendaal, The Netherlands), and 10 ng cDNA was used for each PCR reaction. The real-time PCR primers (Table S1) were purchased from Sigma–Aldrich. Quantitative real time PCR was performed with 2× SensiMix SYBR and Fluoroscein Kit (Bioline GmbH, Luckenwalde, Germany) using a BioRad CFX384 Real-Time PCR detection system (BioRad). Gene expression levels were normalized to the expression of the house-keeping gene 18s rRNA. […]
as §1, §2

Q: Which results are given for `C[C@@H]1NC(=O)[C@H](CCCNC(=N)N)NC(=O)[C@H](Cc2ccc(O)cc2)NC(=O)[C@H](Cc2ccc(O)cc2)NC(=O)[C@H](CCCNC(=N)N)NC(=O)CNC(=O)[C@H](CCCCN)NC(=O)[C@H](Cc2ccc(O)cc2)NC(=O)[C@H]([C@@H](C)O)NC1=O` [cyAV3.3] (cyclo(ATYKGRYYR))?
A: stability of the peptides in human plasma [1]: significant improvement in the stability; reduction of tumor size / tumor growth ([2]; PANC-1 + PSC and MIA PaCa-2 + PSC co-injection xenografts, i.p. treatment, n = 4 per group per tumor type): ~30%; signs of toxicity (body mass, organ mass) ([2]; co-injection xenograft mice, i.p. treatment): did not show any obvious signs of toxicity; tumor blood vessel (CD31+) lumen diameter ([2]; immunofluorescence, co-injection xenograft tumors): larger lumen diameter compared to the control tumors; blocking of the binding of PSC to FN (TGF-β treated PSCs): blocked the binding of PSC to FN significantly higher than AV3.3; gene expression levels related to resistance, stemness and ECM in heterospheroids ([3]; PANC-1 + PSC heterospheroids): significantly reduced; gene expression in homospheroids ([3]; PANC-1 homospheroids): some genes including ABCG1, KRAS, MMP2, MMP9 were inhibited; gene expression of FN and ITGA5 (hPSCs activated by TGF-β; hPSCs activated by TGF-β, cyAV3.3 50 μmol/L, 24 h, qPCR): significantly inhibited the gene expression of FN and ITGA5; expression of 38 ECM and adhesion genes upregulated by TGF-β (heatmap) (hPSCs activated by TGF-β; hPSCs activated by TGF-β, cyAV3.3 50 μmol/L, RT2 Profiler PCR array): downregulated all the upregulated genes; TGF-β-induced gene expression of ACTA2 and COL-1A1 (hPSCs activated by TGF-β; hPSCs, 5 ng/mL TGF-β, 24 h, qPCR): inhibited both ACTA2 and COL-1A1 concentration dependently
